Measurements: article PMC8283759, “A Flavoprotein Dioxygenase Steers Bacterial Tropone Biosynthesis via Coenzyme A-Ester Oxygenolysis and Ring Epoxidation” (Journal of the American Chemical Society, 2021)

Biological target: T1, TdaEBp (Burkholderia plantarii, UniProt A0A0B6RWE3)
T1 construct: gene BGL_1c08010; heterologously produced and purified, N-terminal GB1 (subunit B of protein G) and C-terminal polyhistidine tag
Test: UV-vis of purified protein (c280/c450)
Format: binding
Conditions: loosely bound, co-purified; partial occupancy

T1 sequence (A0A0B6RWE3 entry or part of it): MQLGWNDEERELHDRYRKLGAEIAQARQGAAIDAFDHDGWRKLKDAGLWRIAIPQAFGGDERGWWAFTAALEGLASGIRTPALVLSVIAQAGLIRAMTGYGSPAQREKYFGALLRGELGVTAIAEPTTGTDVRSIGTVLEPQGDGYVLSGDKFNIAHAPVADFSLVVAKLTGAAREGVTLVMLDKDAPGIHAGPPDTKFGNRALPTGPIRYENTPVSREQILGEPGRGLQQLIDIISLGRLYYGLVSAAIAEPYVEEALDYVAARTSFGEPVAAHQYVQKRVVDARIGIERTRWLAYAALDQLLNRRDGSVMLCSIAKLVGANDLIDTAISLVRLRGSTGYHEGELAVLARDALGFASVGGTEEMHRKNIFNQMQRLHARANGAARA

Cc1cc2nc3c(=O)[nH]c(=O)nc-3n(C[C@H](O)[C@H](O)[C@H](O)COP(=O)(O)OP(=O)(O)OC[C@H]3O[C@@H](n4cnc5c(N)ncnc54)[C@H](O)[C@@H]3O)c2cc1C [FAD]
UV-vis of purified protein (c280/c450): TdaE^Bp was weakly yellow due to a loosely bound FAD cofactor
